The record followed here is patent publication US20260062443A1 (ALEXION PHARMACEUTICALS, INC., priority 2022, published 2026).

In general, IC50 refers to the midpoint of a concentration-inhibition curve.

Each structure is given as a SMILES string.

In this test the target is T1, Human complement C1s enzyme (Homo sapiens, UniProt P09871).
T1 sequence (P09871 438-688 limits assumed): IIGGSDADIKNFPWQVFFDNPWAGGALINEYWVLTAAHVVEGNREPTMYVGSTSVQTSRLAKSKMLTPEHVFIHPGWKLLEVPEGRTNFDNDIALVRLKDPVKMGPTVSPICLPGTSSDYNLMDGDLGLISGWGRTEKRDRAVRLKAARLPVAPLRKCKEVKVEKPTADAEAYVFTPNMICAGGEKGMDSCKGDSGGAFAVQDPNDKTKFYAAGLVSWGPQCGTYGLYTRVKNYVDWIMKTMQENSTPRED
T1 sequence (P09871 16-437 partner limits assumed): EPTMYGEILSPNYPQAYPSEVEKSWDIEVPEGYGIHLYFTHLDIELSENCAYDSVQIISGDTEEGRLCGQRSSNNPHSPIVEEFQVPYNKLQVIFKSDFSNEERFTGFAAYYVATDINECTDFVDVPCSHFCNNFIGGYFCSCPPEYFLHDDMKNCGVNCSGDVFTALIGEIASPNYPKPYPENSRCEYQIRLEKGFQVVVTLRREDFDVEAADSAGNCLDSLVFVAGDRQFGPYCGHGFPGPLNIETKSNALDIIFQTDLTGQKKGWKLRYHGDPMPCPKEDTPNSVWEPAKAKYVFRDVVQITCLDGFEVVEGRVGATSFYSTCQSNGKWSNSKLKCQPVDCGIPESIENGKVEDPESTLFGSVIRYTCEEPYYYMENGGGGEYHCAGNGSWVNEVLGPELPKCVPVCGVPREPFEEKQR
The test is described as follows: Human C1s enzyme assay. The conditions noted are these: human complement C1s enzyme 1.16 nM, substrate Z-L-Lys-SBzl 100 μM, 5 min preincubation; read-out: IC50 (Stars), C1s Inhibiting Activity. The class given is biochemical. How it is done:
Other standard complement assays are also available.
Human complement C1s enzyme (purified from human serum, Complement Technology, Inc.) at 1.16 nM final concentration was incubated with test compound at various concentrations for 5 min at room temperature in 50 mM Tris, 1 M NaCl, pH 7.5. A synthetic substrate Z-L-Lys-SBzl and DTNB (Ellman's reagent) were added to final concentrations of 100 μM each. Absorbance at 405 nm (A405) was recorded at 30 second intervals for 30 min using a microplate spectrophotometer. IC50 values were calculated by nonlinear regression of complement C1 s reaction rates as a function of test compound concentration.
ND indicates a compound for which the IC50 value is not determined.
For the molecule `C[C@@H](NC(=O)[C@@H]1C[C@@H](OC(F)F)CN1C(=O)CNC(=O)c1cccc2c1-c1ccccc1C2(F)F)c1cc2cnccc2[nH]1` [Compound 134, (2S,4R)-N-((R)-1-(1H-pyrrolo[3,2-c]pyridin-2-yl)ethyl)-1-((9,9-difluoro-9H-fluorene-4-carbonyl)glycyl)-4-(difluoromethoxy)pyrrolidine-2-carboxamide], the IC50 is above 1000 nM.

As to `Cc1cc(C(=O)NCC(=O)N2C[C@H](OC(F)F)C[C@H]2C(=O)N[C@H](C)c2cc3cnccc3[nH]2)ccc1Oc1ccc(F)cc1` [Compound 143, (2S,4R)-N-((R)-1-(1H-pyrrolo[3,2-c]pyridin-2-yl)ethyl)-4-(difluoromethoxy)-1-((4-(4-fluorophenoxy)-3-methylbenzoyl)glycyl)pyrrolidine-2-carboxamide], the IC50 is below 100 nM.

Turning to `C[C@@]12C[C@@H]1N(C(=O)CNC(=O)c1ccc(Oc3ccccc3)cc1)[C@H](C(=O)NCc1cccc(Cl)c1Cl)C2` [Compound 13, (1S,3S,5S)-N-(2,3-dichlorobenzyl)-5-methyl-2-((4-phenoxybenzoyl)glycyl)-2-azabicyclo[3.1.0]hexane-3-carboxamide], the IC50 was above 1000 nM.

As to `O=C(NCC(=O)N1C[C@H](OC(F)F)C[C@H]1C(=O)NCc1ccc2c(c1)CCNC2)c1ccc2c(c1)Oc1ccccc1S2` [Compound 223, (2S,4R)-4-(difluoromethoxy)-1-((phenoxathiine-3-carbonyl)glycyl)-N-((1,2,3,4-tetrahydroisoquinolin-6-yl)methyl)pyrrolidine-2-carboxamide], the IC50 lay within 100 to 1000 nM.

In the case of `Cc1ccc(Oc2cccc(C(=O)NCC(=O)N3C[C@@](F)(CF)C[C@H]3C(=O)NCc3cc4cnccc4[nH]3)c2)c(F)c1` [Compound 319, (2S,4R)-N-((1H-pyrrolo[3,2-c]pyridin-2-yl)methyl)-4-fluoro-1-((3-(2-fluoro-4-methylphenoxy)benzoyl)glycyl)-4-(fluoromethyl) pyrrolidine-2-carboxamide], the IC50 is below 100 nM.

For `O=C(NCC(=O)N1C[C@H](OC(F)F)C[C@H]1C(=O)NCc1cc2cnccc2[nH]1)c1cccc(N2Cc3ccccc3C2)c1` [Compound 378, (2S,4R)-N-((1H-pyrrolo[3,2-c]pyridin-2-yl)methyl)-4-(difluoromethoxy)-1-((3-(isoindolin-2-yl)benzoyl)glycyl)pyrrolidine-2-carboxamide], the IC50 was below 100 nM.

With `C[C@@H](NC(=O)[C@@H]1CC2(CCCC2)CN1C(=O)CNC(=O)c1ccc2c(c1)Oc1ccccc1S2)c1cc2cnccc2[nH]1` [Compound 131, (S)-N-((R)-1-(1H-pyrrolo[3,2-c]pyridin-2-yl)ethyl)-2-((phenoxathiine-3-carbonyl)glycyl)-2-azaspiro[4.4]nonane-3-carboxamide], the IC50 is below 100 nM.

For the molecule `C[C@@H](NC(=O)[C@@H]1C[C@@H](OC(F)F)CN1C(=O)CN1Cc2cc(Br)ccc2C1=O)c1cc2cnccc2[nH]1` [Compound 100, (2S,4R)-N-((R)-1-(1H-pyrrolo[3,2-c]pyridin-2-yl)ethyl)-1-(2-(5-bromo-1-oxoisoindolin-2-yl)acetyl)-4-(difluoromethoxy)pyrrolidine-2-carboxamide], the IC50 lay within 100 to 1000 nM.

With `O=C(NCC(=O)N1CC2(C[C@H]1C(=O)NCc1cc3cnccc3[nH]1)OCCO2)c1ccc2c(c1)oc1ccccc12` [Compound 213, (S)-N-((1H-pyrrolo[3,2-c]pyridin-2-yl)methyl)-7-((dibenzo[b,d]furan-3-carbonyl)glycyl)-1,4-dioxa-7-azaspiro[4.4]nonane-8-carboxamide], the IC50 was below 100 nM.

Turning to `O=C(NCC(=O)N1C[C@H](OC(F)F)C[C@H]1C(=O)NCc1cc2cnccc2[nH]1)c1cc(-c2ccc(Cl)cc2)cs1` [Compound 377, (2S,4R)-N-((1H-pyrrolo[3,2-c]pyridin-2-yl)methyl)-1-((4-(4-chlorophenyl)thiophene-2-carbonyl)glycyl)-4-(difluoromethoxy)pyrrolidine-2-carboxamide], the IC50 is below 100 nM.

As to `C[C@@H](NC(=O)[C@@H]1C[C@@H](S(=O)(=O)C2CC2)CN1C(=O)CNC(=O)c1ccc2c(c1)Oc1ccccc1S2)c1cc2cnccc2[nH]1` [Compound 174, (2S,4R)-N-((R)-1-(1H-pyrrolo[3,2-c]pyridin-2-yl)ethyl)-4-(cyclopropylsulfonyl)-1-((phenoxathiine-3-carbonyl)glycyl)pyrrolidine-2-carboxamide], the IC50 is below 100 nM.

As for `O=C(NCC(=O)N1C[C@@](F)(CF)C[C@H]1C(=O)NCc1cc2cnccc2[nH]1)c1ccc2oc3ccccc3c2c1` [Compound 187, (2S,4R)-N-((1H-pyrrolo[3,2-c]pyridin-2-yl)methyl)-1-((dibenzo[b,d]furan-2-carbonyl)glycyl)-4-fluoro-4-(fluoromethyl)pyrrolidine-2-carboxamide], the IC50 was below 100 nM.

`Cc1ccc(Oc2cccc(C(=O)NCC(=O)N3C[C@H](OC(F)F)C[C@H]3C(=O)NCc3cc4cnccc4[nH]3)c2)cc1` [Compound 272]: the IC50 is below 100 nM.

With `C[C@@]12C[C@@H]1N(C(=O)CNC(=O)c1ccc(Oc3ccccc3)cc1)[C@H](C(=O)NCc1ccc(Cl)cc1)C2` [Compound 373, (1S,3S,5S)-N-(4-chlorobenzyl)-5-methyl-2-((4-phenoxybenzoyl)glycyl)-2-azabicyclo[3.1.0]hexane-3-carboxamide], the IC50 is above 1000 nM.

Regarding `C[C@@]12C[C@@H]1N(C(=O)CNC(=O)CCCOc1ccccc1)[C@H](C(=O)N[C@@H]1CCn3c(CN)ccc31)C2` [Compound 78, (1S,3S,5S)-N-((R)-5-(aminomethyl)-2,3-dihydro-1H-pyrrolizin-1-yl)-5-methyl-2-((4-phenoxybutanoyl)glycyl)-2-azabicyclo[3.1.0]hexane-3-carboxamide], the IC50 lay in the range of 100 to 1000 nM.

In the case of `CN1CCc2cc(CNC(=O)[C@@H]3C[C@@H](OC(F)F)CN3C(=O)CNC(=O)c3ccc4c(c3)Oc3ccccc3S4)sc2C1` [Compound 346, (2S,4R)-4-(difluoromethoxy)-N-((6-methyl-4,5,6,7-tetrahydrothieno[2,3-c]pyridin-2-yl)methyl)-1-((phenoxathiine-3-carbonyl)glycyl) pyrrolidine-2-carboxamide], the IC50 was above 1000 nM.

Take `O=C(NCC(=O)N1CC2(C[C@H]1C(=O)NCc1nc3cnccc3[nH]1)OCCO2)c1ccc2c(c1)Oc1ccccc1S2` [Compound 49, (S)-N-((1H-imidazo[4,5-c]pyridin-2-yl)methyl)-7-((phenoxathiine-3-carbonyl)glycyl)-1,4-dioxa-7-azaspiro[4.4]nonane-8-carboxamide]: the IC50 is above 1000 nM.

On to `O=C(NCC(=O)N1CC2(C[C@H]1C(=O)NCc1cc3c(Cl)nccc3[nH]1)OCCO2)c1ccc2c(c1)Oc1ccccc1S2` [Compound 42, (S)-N-((4-chloro-1H-pyrrolo[3,2-c]pyridin-2-yl)methyl)-7-((phenoxathiine-3-carbonyl)glycyl)-1,4-dioxa-7-azaspiro[4.4]nonane-8-carboxamide], for which the IC50 is above 1000 nM.

Consider `O=C(NCC(=O)N1C[C@H](OC(F)F)C[C@H]1C(=O)NCc1cc2cnccc2[nH]1)c1ccc2c(c1)-c1ccccc1C2(F)F` [Compound 8, (2S,4R)-N-((1H-pyrrolo[3,2-c]pyridin-2-yl)methyl)-1-((9,9-difluoro-9H-fluorene-3-carbonyl)glycyl)-4-(difluoromethoxy)pyrrolidine-2-carboxamide], for which the IC50 is below 100 nM.
